The values below come from PubChem BioAssay (NCI).

“And” between values parts separate entries of the source, which are not always exact repeats. Identical values can stand only once.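 Method: 48-hour compound exposure of cells in 96-well plates, five concentrations, linear interpolation of endpoints. GI50 is the concentration that inhibits growth by half. TGI: concentration producing complete growth inhibition.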

Among the test systems are KM12 colon; RXF 393 renal; EKVX NSCLC; SN12C renal; SNB-19 CNS; CAKI-1 renal; OVCAR-8 ovarian; SK-MEL-5 melanoma; SK-MEL-28 melanoma; A498 renal.
Common to all, as to experiment: growth of human tumour cells (NCI), 48 h

In the case of `Cc1cccc(CN(C)c2ccc(CO)c(Cl)c2)c1`, the GI50 was 22.5 µM in the test on KM12 colon; 9.52 µM in the test on RXF 393 renal; 22.6 µM with EKVX NSCLC; 15 µM in the test on SN12C renal; 28.4 µM in the test on SNB-19 CNS; 3.71 µM in the test with CAKI-1 renal. Further, the GI50 is 16.1 µM with OVCAR-8 ovarian, 9.47 µM in the test with SK-MEL-5 melanoma, 19.3 µM in the test with SK-MEL-28 melanoma and 0.0433 µM in the test on A498 renal. Besides, the TGI in the test on KM12 colon was 72.4 µM; with RXF 393 renal, 27.8 µM; in the test with EKVX NSCLC, 90.1 µM; with SN12C renal it was 48.9 µM; in the test with SNB-19 CNS it was > 100 µM; in the test on CAKI-1 renal, 44.3 µM. The TGI with OVCAR-8 ovarian was > 79.5 µM; in the test on SK-MEL-5 melanoma, 22.3 µM; in the test on SK-MEL-28 melanoma, > 76.1 µM; in the test on A498 renal it was 0.184 µM.
In the case of `CC1=C(N2CC2)C(=O)C(CO)=C(N2CC2)C1=O`, the GI50 is 0.0356 µM in the test with KM12 colon; 0.0057 µM with SN12C renal; 0.0025 µM with SNB-19 CNS; 0.00256 µM in the test on CAKI-1 renal; 0.0145 µM in the test on OVCAR-8 ovarian; 0.0399 µM in the test with SK-MEL-5 melanoma. In the test with A498 renal, the GI50 was 0.0158 µM. The TGI with KM12 colon was 0.337 µM; with RXF 393 renal, 0.0946 µM; in the test with EKVX NSCLC, 0.99 µM; in the test on SN12C renal it was 0.0367 µM and 0.139 µM; in the test with CAKI-1 renal it was 0.412 µM and 0.243 µM; with OVCAR-8 ovarian it was 0.0701 µM and 0.0799 µM. Moreover, the TGI was 0.162 µM and 0.312 µM with SK-MEL-5 melanoma; 0.228 µM in the test with SK-MEL-28 melanoma; 0.041 µM and 0.22 µM in the test on A498 renal.
Take `CCOP(=O)(CCP(=O)(OCC)OCC)OCC.C[CH2][Sn]([Cl])([Cl])[CH2]C`: the GI50 in the test on KM12 colon was > 100 µM; in the test on RXF 393 renal, 15.3 µM; in the test on EKVX NSCLC, > 100 µM; in the test with SN12C renal, 48.1 µM; with SNB-19 CNS it was 31.2 µM; with CAKI-1 renal, 13.9 µM. Besides, the GI50 in the test on OVCAR-8 ovarian is > 100 µM; in the test on SK-MEL-5 melanoma it was 36.4 µM; in the test on SK-MEL-28 melanoma it was 35.6 µM; in the test on A498 renal, 17.4 µM. Moreover, the TGI in the test on KM12 colon is > 100 µM; in the test with RXF 393 renal, 30.1 µM; in the test with EKVX NSCLC it was > 100 µM; in the test with SN12C renal it was > 69.8 µM; with SNB-19 CNS, 49.9 µM; in the test with CAKI-1 renal it was 35 µM. In addition, the TGI in the test with OVCAR-8 ovarian was > 100 µM; in the test with SK-MEL-5 melanoma, > 86.7 µM; in the test with SK-MEL-28 melanoma, > 61.9 µM; in the test with A498 renal it was 26 µM.
For `C=CCC(C(=O)OC)C1(C(=O)OC)c2[nH]c3ccccc3c2CCN1Cc1ccccc1` (stereo unspecified), the TGI in the test on KM12 colon, in the test with RXF 393 renal, in the test on EKVX NSCLC, with SN12C renal, in the test with SNB-19 CNS and with CAKI-1 renal was > 100 µM throughout. The TGI in the test on OVCAR-8 ovarian, with SK-MEL-5 melanoma, with SK-MEL-28 melanoma and with A498 renal was > 100 µM throughout.
Take `Nc1ccc2c(c1)C(=O)c1ccc(F)cc1-2`: the TGI in the test with KM12 colon, in the test with RXF 393 renal, in the test on EKVX NSCLC, with SN12C renal, with SNB-19 CNS and with CAKI-1 renal was > 100 µM throughout. Also, the TGI in the test with OVCAR-8 ovarian, in the test with SK-MEL-5 melanoma, with SK-MEL-28 melanoma and in the test with A498 renal was > 100 µM in each case.
Turning to `COC1=C(OC)C(=O)C(/C=C(\C)C(=O)O)=C(C)C1=O`, the GI50 with KM12 colon, in the test with RXF 393 renal, in the test with EKVX NSCLC, in the test with SN12C renal, in the test with SNB-19 CNS and with CAKI-1 renal was > 100 µM each time. Moreover, the GI50 in the test on OVCAR-8 ovarian, in the test with SK-MEL-5 melanoma, in the test with SK-MEL-28 melanoma and with A498 renal was > 100 µM throughout. For the same compound, the TGI in the test with KM12 colon, with RXF 393 renal, in the test on EKVX NSCLC, in the test with SN12C renal, in the test with SNB-19 CNS and in the test with CAKI-1 renal was > 100 µM each time. Moreover, the TGI with OVCAR-8 ovarian, with SK-MEL-5 melanoma, with SK-MEL-28 melanoma and with A498 renal was > 100 µM each time.
As for `CCCc1cc(=O)oc2c(C(=O)CC(C)C)c(O)c(CC=C(C)C)c(O)c12`, the GI50 was 11 µM in the test on KM12 colon; 13.7 µM with RXF 393 renal; 9.22 µM in the test on EKVX NSCLC; 8.84 µM in the test with SN12C renal; 14.5 µM in the test with SNB-19 CNS; 8.38 µM in the test on CAKI-1 renal. The GI50 with OVCAR-8 ovarian was 12 µM; in the test with SK-MEL-5 melanoma, 2.53 µM; with SK-MEL-28 melanoma it was 6.21 µM; in the test with A498 renal, 4.04 µM. Moreover, the TGI is > 50 µM with KM12 colon; 45.2 µM in the test on RXF 393 renal; > 50 µM in the test on EKVX NSCLC; > 50 µM in the test on SN12C renal; > 50 µM in the test with SNB-19 CNS; 33.9 µM in the test with CAKI-1 renal. For the same compound, the TGI in the test on OVCAR-8 ovarian was > 50 µM; in the test on SK-MEL-5 melanoma it was 11 µM; with SK-MEL-28 melanoma it was > 50 µM; with A498 renal, 17.9 µM.
On to `O=C(CCc1nnc2s/c(=C\c3ccccc3)c(=O)n12)Nc1cc(Cl)ccc1Cl`, for which the TGI with KM12 colon, in the test with RXF 393 renal, in the test with EKVX NSCLC, in the test with SN12C renal, in the test on SNB-19 CNS and in the test on CAKI-1 renal was > 100 µM in each case. In addition, the TGI in the test with OVCAR-8 ovarian, with SK-MEL-5 melanoma, with SK-MEL-28 melanoma and in the test with A498 renal was > 100 µM throughout.
`CCCCCCCCCCCCCCCCOC(=O)C(C(=O)OCCCCCCCCCCCCCCCC)[N+](C)(C)CCOC(C)=O`: the TGI amounted to 33.8 µM in the test with KM12 colon; 8.98 µM in the test with RXF 393 renal; 43.7 µM in the test on EKVX NSCLC; 35.3 µM with SN12C renal; 43.8 µM in the test with SNB-19 CNS; 30.9 µM with CAKI-1 renal. Also, the TGI in the test with OVCAR-8 ovarian was 37.3 µM; in the test with SK-MEL-5 melanoma, 35.1 µM; in the test on SK-MEL-28 melanoma, 40.8 µM; in the test with A498 renal it was 57.5 µM.
For the compound `C=CCN1C(=O)/C(=c2\sc3n(c2=O)C2C(NN=3)N(CC)C(=O)N2CC)c2ccccc21` (stereo unspecified), the GI50 was 0.439 µM with KM12 colon; 0.328 µM in the test with RXF 393 renal; 1.39 µM in the test with EKVX NSCLC; 0.7 µM in the test on SN12C renal; 0.973 µM in the test on SNB-19 CNS; 0.474 µM in the test with CAKI-1 renal. Besides, the GI50 in the test on OVCAR-8 ovarian is 1.12 µM; with SK-MEL-5 melanoma, 0.421 µM; in the test on SK-MEL-28 melanoma it was 5.36 µM; in the test with A498 renal, 0.246 µM. In addition, the TGI was > 100 µM in the test on KM12 colon; 1.94 µM in the test with RXF 393 renal; > 100 µM with EKVX NSCLC; > 100 µM in the test with SN12C renal; > 74.9 µM in the test with SNB-19 CNS; > 100 µM in the test on CAKI-1 renal. Besides, the TGI in the test on OVCAR-8 ovarian is > 100 µM; with SK-MEL-5 melanoma, 2.05 µM; in the test with SK-MEL-28 melanoma, > 100 µM; with A498 renal, 1.17 µM.
Take `Oc1nc(NCCc2ccccc2)sc1/C=C1\C=Nc2ncccc21`: the GI50 is 2.69 µM and 2.71 µM in the test on KM12 colon; 1.91 µM and 2.53 µM with RXF 393 renal; 3.18 µM and 3.52 µM with EKVX NSCLC; 2.63 µM and 3.92 µM in the test with SN12C renal; 2.47 µM and 2.82 µM in the test on SNB-19 CNS; 2.61 µM and 5.34 µM in the test with CAKI-1 renal. Moreover, the GI50 with OVCAR-8 ovarian was 2.91 µM and 3.12 µM; with SK-MEL-5 melanoma it was 2.45 µM and 2.83 µM; in the test with SK-MEL-28 melanoma, 2.83 µM and 2.52 µM; with A498 renal, 1.95 µM and 1.84 µM. For the same compound, the TGI was 9.91 µM and 13 µM with KM12 colon; 4.08 µM and 5.72 µM with RXF 393 renal; 29.6 µM and 26.9 µM in the test with EKVX NSCLC; 12.9 µM and 74.1 µM in the test on SN12C renal; 11.2 µM and 18.7 µM in the test on SNB-19 CNS; 14 µM and > 100 µM with CAKI-1 renal. Moreover, the TGI was 13.4 µM and 14.8 µM with OVCAR-8 ovarian; 6.67 µM and 7.88 µM in the test on SK-MEL-5 melanoma; 13.6 µM and 7.58 µM in the test on SK-MEL-28 melanoma; 4.19 µM and 4.45 µM in the test with A498 renal.
In the case of `CN(C)CC(C(=O)c1ccccc1)c1ccccc1` (stereo unspecified), the GI50 is 1.74 µM in the test with KM12 colon; 1.69 µM with RXF 393 renal; 10.2 µM in the test on EKVX NSCLC; 1.57 µM with SN12C renal; 6.1 µM with SNB-19 CNS; 0.966 µM in the test with CAKI-1 renal. In addition, the GI50 in the test with OVCAR-8 ovarian is 1.99 µM; in the test with SK-MEL-5 melanoma, 1.57 µM; with SK-MEL-28 melanoma, 4.13 µM; in the test with A498 renal it was 4.44 µM. Further, the TGI in the test on KM12 colon amounted to 3.83 µM; with RXF 393 renal, 4.46 µM; in the test on EKVX NSCLC, 27.1 µM; with SN12C renal it was 3.35 µM; with SNB-19 CNS it was 19.4 µM; in the test on CAKI-1 renal it was 2.67 µM. Further, the TGI in the test on OVCAR-8 ovarian is 6.56 µM; in the test on SK-MEL-5 melanoma, 3.45 µM; with SK-MEL-28 melanoma, 13.6 µM; in the test with A498 renal, 18.4 µM.
`O=[N+]([O-])c1cccc(C2SCc3nc4ccccc4n32)c1` (stereo unspecified): the TGI in the test with KM12 colon, with RXF 393 renal, in the test on EKVX NSCLC, with SN12C renal, in the test on SNB-19 CNS and in the test on CAKI-1 renal was > 100 µM throughout. Further, the TGI in the test on OVCAR-8 ovarian was > 100 µM; with SK-MEL-5 melanoma it was 52.8 µM; in the test on SK-MEL-28 melanoma, > 100 µM; in the test with A498 renal, > 100 µM.
For `CN(C)CCNC(=O)c1cccc2nc3ccc4ccccc4c3nc12`, the TGI came out at 0.876 µM in the test on KM12 colon; 0.198 µM in the test on RXF 393 renal; 0.468 µM in the test with EKVX NSCLC; 0.342 µM in the test on SN12C renal; 0.921 µM in the test on SNB-19 CNS; 0.541 µM with CAKI-1 renal. For the same compound, the TGI was 0.284 µM in the test on OVCAR-8 ovarian, 0.236 µM in the test on SK-MEL-5 melanoma, 1.05 µM in the test with SK-MEL-28 melanoma and 0.241 µM in the test with A498 renal.
